Data from patent US20260112450A1, “METHODS FOR SELECTION OF CANCER PATIENTS FOR ANTI-ANGIOGENIC AND IMMUNE CHECKPOINT BLOCKAGE THERAPIES AND COMBINATIONS THEREOF” (Washington University, priority 2022, published 2026).
Several values for one entry are separate records, joined by “and”; a condition that tells them apart may be missing. Identical values can stand only once.

Experiments:
[1] = tested on: clear cell renal carcinoma; assay: Braun dataset (Checkmate 025 and Checkmate 010): overall survival, re-evaluated by angio-immune subtype; assay type: in vivo, human; settings: for differences in median OS between angio-immune molecular subtypes: comparison of C1, C2 and C3 within one treatment arm
Excerpt: (§1) Immunotherapy datasets: Pre-treatment TPM normalized RNA sequencing data from anti-PD1/L1 and anti-CTLA4 treated cohorts were downloaded for the studies as described in Table 1. Studies were selected based on the following criteria: >20 samples for enrichment calculation, RNA sequencing of pre-treatment biopsies, and only anti-PD1/PDL1 treated patients. Gene signature enrichment and molecular subtypes were derived as described elsewhere in the manuscript. Survival and response rates to treatment when available were compared among angio-immune clusters.
(§2) Quantification and Statistical Analysis: Unless indicated elsewhere, all visualizations were completed in GraphPad Prism 9. GraphPad Prism 9 was used for all statistical analysis. Data is presented as mean±standard error of mean. One way ANOVA was used for comparison across more than two groups. Non-parametric tests were used when data was not normally distributed. Log rank tests were used for all survival analysis. Alpha value of 0.05 was used throughout the study.
(§3) The approval of the combination of avelumab, an anti-PDL1, and axitinib, a small molecule tyrosine kinase inhibitor, for the first-line treatment of metastatic renal cancer was provided in 2020. […] Next, it was sought to ascertain if stratification by angio-immune subtypes can confer more significant differences in responses and survival.
(§4) The enrichment of the 91 angio-immune signatures was scored using RNA sequencing data from pre-treatment biopsies.
Survival was tracked across clusters to identify if angio-immune molecular subtypes can inform treatment choice in this setting. […] To determine if patients belonging to C1, C2, and C3 derive clinical benefit from Nivolumab over everolimus, OS was tracked among angio-immune molecular subtypes across treatment arms.

metastatic renal cancer = assay: Javelin Renal 101 clinical trial: progression free survival, re-evaluated by angio-immune subtype; assay type: in vivo, human
Excerpt: as §1, §2, §3, §4
Survival was tracked across clusters to identify if angio-immune molecular subtypes can inform treatment choice in this setting.

[2] = all patients with pre-treatment RNA sequencing data, Braun dataset
[3] = patients in angio-immune subtype C1, Braun dataset
[4] = patients in angio-immune subtype C2, Braun dataset
[5] = patients in angio-immune subtype C3, Braun dataset

Molecule | median OS [1, 2] | differences in median OS between angio-immune molecular subtypes [1] | median OS [1, 3] | median OS [1, 4] | median OS [1, 5] | median PFS (metastatic renal cancer; all patients with pre-treatment RNA sequencing data, Javelin Renal 101 dataset) | median PFS (metastatic renal cancer; patients in angio-immune subtype C1, Javelin Renal 101 dataset) | median PFS (metastatic renal cancer; patients in angio-immune subtype C2, Javelin Renal 101 dataset) | median PFS (metastatic renal cancer; patients in angio-immune subtype C3, Javelin Renal 101 dataset) | clinical benefit (OS) compared to everolimus ([1]; patients in C1, p=0.6347) | clinical benefit (OS) compared to everolimus ([1]; patients in C2, p=0.0581) | median OS compared to the everolimus arm ([1]; patients in C3, p<0.0043)
CO[C@H]1C[C@@H]2CC[C@@H](C)[C@@](O)(O2)C(=O)C(=O)N2CCCC[C@H]2C(=O)O[C@H]([C@H](C)C[C@@H]2CC[C@@H](OCCO)[C@H](OC)C2)CC(=O)[C@H](C)/C=C(\C)[C@@H](O)[C@@H](OC)C(=O)[C@H](C)C[C@H](C)/C=C/C=C/C=C/1C [everolimus] | 19.7454 months | no significant differences | 24.6735 months | 21.13 months | 13.27 months | – | – | – | – | – | – | –
CCN(CC)CCNC(=O)c1c(C)[nH]c(/C=C2\C(=O)Nc3ccc(F)cc32)c1C [sunitinib] | – | – | – | – | – | 8.4 months | 9.7 months | 8.3 months | 8.2 months | – | – | –
Nivolumab: an anti-PD1 therapy | 25.9877 months | significant improvement in median OS | 16.9528 months | 36.961 months and 36.96 months | 29.8645 months and 29.86 months | – | – | – | – | no clinical benefit | no statistically significant clinical benefit | significantly improved
